Literature values as cited in patent US11504333B2, “Pharmaceutical composition” (NOVARTIS AG, priority 2017, dated 2022).
Entries after “also recorded” stand apart in the source; their conditions may differ. Read-outs that look alike come from different tables or passages of the source.

Key:
[1] = not given; remark: listed apart in the source

- Permeability: high permeability
- Solubility ([1]; slightly acidic, neutral pH, and basic media): practically insoluble
- Solubility ([1]; strongly acidic aqueous media): very slightly soluble
Structure (SMILES): CC(C)(C)c1nc(-c2cccc(NS(=O)(=O)c3c(F)cccc3F)c2F)c(-c2ccnc(N)n2)s1.CS(=O)(=O)O [Compound A, N-{3-[5-(2-Amino-4-pyrimidinyl)-2-(1,1-dimethylethyl)-1,3-thiazol-4-yl]-2-fluorophenyl}-2,6-difluorobenzenesulfonamide, methanesulfonate salt]
- Solubility (general) ([1]; aqueous, methanesulfonate salt): low solubility; also recorded: poor aqueous solubility
